For one data set, the target named is T1, Recombinant human MAO-A (Homo sapiens, UniProt P21397).
T1 construct: purchased BD Biosciences (MA, USA)
T1 sequence (P21397 1-527): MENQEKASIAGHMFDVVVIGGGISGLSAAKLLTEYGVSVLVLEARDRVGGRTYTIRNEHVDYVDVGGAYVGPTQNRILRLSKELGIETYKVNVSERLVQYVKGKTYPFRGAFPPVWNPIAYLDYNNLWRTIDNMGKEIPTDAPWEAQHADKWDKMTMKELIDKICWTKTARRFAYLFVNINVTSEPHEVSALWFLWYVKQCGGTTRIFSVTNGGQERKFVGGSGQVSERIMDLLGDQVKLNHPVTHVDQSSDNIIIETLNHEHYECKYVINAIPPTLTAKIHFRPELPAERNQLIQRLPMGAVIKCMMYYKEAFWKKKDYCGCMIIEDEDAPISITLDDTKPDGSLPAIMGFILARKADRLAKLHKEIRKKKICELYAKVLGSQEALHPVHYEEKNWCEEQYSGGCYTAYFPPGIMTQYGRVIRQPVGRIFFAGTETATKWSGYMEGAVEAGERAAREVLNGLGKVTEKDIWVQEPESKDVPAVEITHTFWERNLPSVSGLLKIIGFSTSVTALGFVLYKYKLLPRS
The data set is described as follows: MAO-A activity, colorimetric method, tyramine substrate. The format is biochemical. As to conditions: for Specificity of SSAO on MAO-A: ratio of IC50 for MAO-A to IC50 for SSAO; for IC50: recombinant human MAO-A. On the procedure: The specificities of the different SSAO inhibitors was tested by determining their abilities to inhibit MAO-A and MAO-B activities in vitro. Recombinant human MAO-A and human MAO-B enzymes were obtained from BD Biosciences (MA, USA). MAO activity was measured using the colorimetric method essentially as described (Holt, A. et al. (1997) Anal. Biochem. 244: 384). A pre-determined amount of inhibitor diluted in 0.2M potassium phosphate buffer, pH 7.6, was added to each well, if required. The amount of inhibitor varied in each assay but was generally at a final concentration of between 1 nM and 1 mM. Controls lacked inhibitor. The following agents were then added to a final reaction volume of 200 μL in 0.2M potassium phosphate buffer, pH 7.6: 0.04 mg/ml of MAO-A or 0.07 mg/ml MAO-B enzyme, 15 μL of 10 mM tyramine substrate (for MAO-A), or 15 μL 100 mM benzylamine substrate (for MAO-B), and 50 μL of freshly made chromogenic solution. The chromogenic solution contained 750 μM vanillic acid (Sigma#V-2250), 400 μM 4-aminoantipyrine (Sigma #A-4328) and 12 U/mL horseradish peroxidase (Sigma #P-8250) in order to cause a change of 0.5 OD A490 nm/h. This was within the linear response range for the assay. The plates were incubated for 60 min at 37° C. The increase in absorbance, reflecting MAO activity, was measured at 490 nm using microplate spectrophotometer (Power Wave 40, Bio-Tek Inst.). Inhibition was presented as percent inhibition compared to control after correcting for background absorbance and IC50 values calculated using GraphPad Prism software. Clorgyline and pargyline (inhibitors of MAO-A and -B, respectively) at 1 μM, were added to some wells as positive controls for MAO inhibition. […] The compounds described in the present invention are therefore expected to have therapeutic utility in the treatment of diseases and conditions in which the activity of SSAO/VAP-1 plays a role, that is, in SSAO/VAP-1 mediated diseases and conditions.

Another data set has as its target T2, human MAO-B (Homo sapiens, UniProt P27338).
T2 construct: purchased BD Biosciences (MA, USA)
T2 sequence (P27338 1-520): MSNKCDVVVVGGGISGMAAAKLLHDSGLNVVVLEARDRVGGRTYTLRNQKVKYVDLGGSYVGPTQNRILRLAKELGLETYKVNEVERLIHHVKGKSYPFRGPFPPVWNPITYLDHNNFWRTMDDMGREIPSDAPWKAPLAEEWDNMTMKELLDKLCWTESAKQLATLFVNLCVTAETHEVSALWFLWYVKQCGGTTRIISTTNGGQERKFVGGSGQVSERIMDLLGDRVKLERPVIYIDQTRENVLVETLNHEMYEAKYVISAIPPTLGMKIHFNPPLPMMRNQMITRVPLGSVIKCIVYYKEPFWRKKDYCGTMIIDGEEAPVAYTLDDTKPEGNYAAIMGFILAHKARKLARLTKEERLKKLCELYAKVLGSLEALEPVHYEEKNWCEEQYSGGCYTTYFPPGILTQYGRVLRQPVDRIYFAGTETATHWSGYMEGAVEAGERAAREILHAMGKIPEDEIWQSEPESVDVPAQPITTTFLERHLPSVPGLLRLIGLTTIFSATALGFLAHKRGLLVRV
The data set is described as follows: MAO-B activity, colorimetric method, benzylamine substrate. The format is biochemical. Particulars: for Specificity of SSAO on MAO-B: ratio of IC50 for MAO-B to IC50 for SSAO; for IC50: recombinant human MAO-B. On the procedure:
The specificities of the different SSAO inhibitors was tested by determining their abilities to inhibit MAO-A and MAO-B activities in vitro. Recombinant human MAO-A and human MAO-B enzymes were obtained from BD Biosciences (MA, USA). MAO activity was measured using the colorimetric method essentially as described (Holt, A. et al. (1997) Anal. Biochem. 244: 384). A pre-determined amount of inhibitor diluted in 0.2M potassium phosphate buffer, pH 7.6, was added to each well, if required. […] Controls lacked inhibitor. The following agents were then added to a final reaction volume of 200 μL in 0.2M potassium phosphate buffer, pH 7.6: 0.04 mg/ml of MAO-A or 0.07 mg/ml MAO-B enzyme, 15 μL of 10 mM tyramine substrate (for MAO-A), or 15 μL 100 mM benzylamine substrate (for MAO-B), and 50 μL of freshly made chromogenic solution. The chromogenic solution contained 750 μM vanillic acid (Sigma#V-2250), 400 μM 4-aminoantipyrine (Sigma #A-4328) and 12 U/mL horseradish peroxidase (Sigma #P-8250) in order to cause a change of 0.5 OD A490 nm/h. […] The plates were incubated for 60 min at 37° C. The increase in absorbance, reflecting MAO activity, was measured at 490 nm using microplate spectrophotometer (Power Wave 40, Bio-Tek Inst.). Inhibition was presented as percent inhibition compared to control after correcting for background absorbance and IC50 values calculated using GraphPad Prism software. Clorgyline and pargyline (inhibitors of MAO-A and -B, respectively) at 1 μM, were added to some wells as positive controls for MAO inhibition.

A word on the melting point: it is the temperature, or range, at which the solid turns liquid. A word on the IC50: it is the point on the concentration scale where inhibition reaches its midpoint.

SMILES strings stand for the structures.

Take `Cl.NC/C(=C\F)Cc1cccc(F)c1` [Compound I-19-Z, (Z)-3-Fluoro-2-(3-fluorobenzyl)allylamine hydrochloride]: the melting point was in the range of 120.5 to 121.5 °C. In addition, on Recombinant human MAO-A, the “Specificity of SSAO on MAO-A” value was found to be 1360 and the IC50 came to 34 µM. On human MAO-B, the “Specificity of SSAO on MAO-B” value was 27.6 and the 50% inhibitory concentration (IC50) is 0.69 µM.

The compound `NC/C(=C\Cl)CCc1cc(F)cc(C(F)(F)F)c1.O=C(O)C(F)(F)F` [Compound I-40-Z, (Z)-3-Chloro-2-(3-fluoro-5-trifluoromethylphenylethyl)allylamine trifluoroacetate] gave a melting point of 51 to 52 °C. In addition, on Recombinant human MAO-A, the “Specificity of SSAO on MAO-A” value was 687 and the IC50 turned out to be 632 µM. Further, at human MAO-B, the “Specificity of SSAO on MAO-B” value is 185 and the IC50 turned out to be 170 µM.

As to `COc1ccc(CC/C(=C\Cl)CN)cc1.Cl` [Compound I-44-Z, (E)-3-Chloro-2-(4-methoxyphenylethyl)allylamine hydrochloride], the melting point was 138 °C (dec.). In addition, on Recombinant human MAO-A, the “Specificity of SSAO on MAO-A” value is recorded as 146 and the 50% inhibitory concentration (IC50) came out at 105 µM. Moreover, on human MAO-B, the “Specificity of SSAO on MAO-B” value stood at 22 and the IC50 is 16 µM.

`CCOc1ccc(CC/C(=C\Cl)CN)cc1.Cl` [Compound I-45-Z, (E)-3-Chloro-2-(4-ethoxyphenylethyl)allylamine hydrochloride]: the melting point lay within 104 to 106 °C. Further, on Recombinant human MAO-A, the “Specificity of SSAO on MAO-A” value is given as 143 and the half-maximal inhibitory concentration (IC50) turned out to be 20 µM. In addition, on human MAO-B, the “Specificity of SSAO on MAO-B” value turned out to be 8.6 and the IC50 amounted to 1.2 µM.

The compound `CCCCOc1ccc(CC/C(=C\Cl)CN)cc1.Cl` [Compound I-47-E, (E)-3-Chloro-2-(4-n-butoxyphenylethyl)allylamine hydrochloride] returned a melting point of 132 to 133 °C. At Recombinant human MAO-A, the “Specificity of SSAO on MAO-A” value amounted to 794 and the IC50 is 135 µM. Further, on human MAO-B, the “Specificity of SSAO on MAO-B” value worked out at 2.5 and the IC50 stood at 0.42 µM.

In the case of `COc1ccc(CC/C(=C/F)CN)cc1.Cl` [Compound I-102-Z, (Z)-3-Fluoro-2-[2-(4-methoxyphenyl)-ethyl]-allylamine hydrochloride], the melting point was 94 to 95 °C. For the same compound, at Recombinant human MAO-A, the “Specificity of SSAO on MAO-A” value was 21 and the half-inhibitory concentration (IC50) worked out at 0.62 µM. Also, at human MAO-B, the “Specificity of SSAO on MAO-B” value is given as 19 and the half-maximal inhibitory concentration (IC50) was 0.56 µM.

In turn, `NC/C(=C\F)CCc1cc(F)cc(C(F)(F)F)c1.O=C(O)C(F)(F)F` [Compound I-109-Z, (Z)-3-Fluoro-2-(3-fluoro-5-trifluoromethylphenylethyl)allylamine trifluoroacetate] showed a melting point of 56 to 57 °C. Further, at Recombinant human MAO-A, the “Specificity of SSAO on MAO-A” value stood at 78 and the IC50 was 21 µM. Further, on human MAO-B, the “Specificity of SSAO on MAO-B” value is on record as 5.9 and the IC50 was determined as 1.6 µM.

As for `Cl.NC/C(F)=C\Cc1ccc(F)cc1` [II-5-E, (E)-2-Fluoro-4-(4-fluorophenyl)-2-butenylamine hydrochloride], the melting point fell in the range of 213 to 214 °C. Moreover, on Recombinant human MAO-A, the “Specificity of SSAO on MAO-A” value is greater than 3333 and the half-maximal inhibitory concentration (IC50) was greater than 1000 µM. On human MAO-B, the “Specificity of SSAO on MAO-B” value was greater than 3333 and the IC50 is greater than 1000 µM.

Compound `Cc1cccc(C/C=C(/F)CN)c1.Cl` [II-6-E, (E)-2-Fluoro-4-(3-methylphenyl)-2-butenylamine hydrochloride] returned a melting point of 195 to 196 °C. The “Specificity of SSAO on MAO-A” value at Recombinant human MAO-A was 7692. In addition, the “Specificity of SSAO on MAO-B” value at human MAO-B worked out at 7692.

As to `Cl.NC/C(F)=C\Cc1cccc(F)c1` [II-7-E, (E)-2-Fluoro-4-(3-fluorophenyl)-2-butenylamine hydrochloride], the melting point is 175 to 176 °C. Also, the “Specificity of SSAO on MAO-A” value at Recombinant human MAO-A is 4545. The “Specificity of SSAO on MAO-B” value on human MAO-B is recorded as 4545.

The record behind these values is patent US20110269811A1, “INHIBITORS OF SEMICARBAZIDE-SENSITIVE AMINE OXIDASE (SSAO) AND VAP-1 MEDIATED ADHESION USEFUL FOR TREATMENT AND PREVENTION OF DISEASES” (priority 2006, published 2011).
